Laboratory results published in PMC7615656 (European journal of pharmacology, 2010).

Columns and labels:
[1] = molecular target: recombinant rat α1β3γ2 receptors (Rattus norvegicus, UniProt P18508+P62813); assay: Two-electrode voltage clamp of GABA-induced chloride currents in Xenopus oocytes; assay type: cell-based; settings: for efficacy (% GABA EC3): α1β3γ2, ns = not significant
[2] = tested on: GABAA receptors containing the γ2F77I mutation; assay: Modulation of GABA EC3 in receptors containing the γ2F77I mutation; assay type: cell-based, rat; settings: up to 100 nM
[3] = molecular target: recombinant rat α3β3γ2 receptors (Rattus norvegicus, UniProt P18508+P20236); assay: Two-electrode voltage clamp of GABA-induced chloride currents in Xenopus oocytes; assay type: cell-based; settings: for efficacy (% GABA EC3): α3β3γ2, ns = not significant
[4] = molecular target: recombinant rat α5β3γ2 receptors (Rattus norvegicus, UniProt P18508+P19969); assay: as above; assay type: cell-based; settings: for efficacy (% GABA EC3): α5β3γ2, ns = not significant
[5] = molecular target: recombinant rat α3β3γ2F77I receptors (Rattus norvegicus, UniProt P18508+P20236, F115I); assay: as above; assay type: cell-based; settings: for efficacy (% GABA EC3): ns = not significant
[6] = molecular target: recombinant rat α4β3γ2 receptors (Rattus norvegicus, UniProt P18508+P28471); assay: as above; assay type: cell-based; settings: for efficacy (% GABA EC3): ns = not significant
[7] = molecular target: recombinant rat α1β3γ2F77I receptors (Rattus norvegicus, UniProt P18508+P62813, F115I); assay: as above; assay type: cell-based; settings: for efficacy (% GABA EC3): ns = not significant
[8] = molecular target: recombinant rat α2β3γ2 receptors (Rattus norvegicus, UniProt P18508+P23576); assay: as above; assay type: cell-based
Sequence of recombinant rat α2β3γ2 receptors (P23576 29-451): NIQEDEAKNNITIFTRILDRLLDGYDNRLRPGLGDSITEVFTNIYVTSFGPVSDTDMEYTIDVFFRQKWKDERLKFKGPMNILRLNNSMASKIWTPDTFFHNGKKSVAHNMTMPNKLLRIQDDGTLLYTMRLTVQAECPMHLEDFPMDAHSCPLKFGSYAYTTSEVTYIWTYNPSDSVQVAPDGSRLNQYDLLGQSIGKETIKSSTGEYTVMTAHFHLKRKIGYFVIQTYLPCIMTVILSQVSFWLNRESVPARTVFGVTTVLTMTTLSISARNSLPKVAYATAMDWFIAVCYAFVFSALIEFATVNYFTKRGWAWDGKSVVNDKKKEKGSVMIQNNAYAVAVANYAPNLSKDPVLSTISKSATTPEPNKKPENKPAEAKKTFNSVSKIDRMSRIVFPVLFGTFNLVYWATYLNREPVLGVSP
Sequence of recombinant rat α2β3γ2 receptors (P63079 26-473 partner): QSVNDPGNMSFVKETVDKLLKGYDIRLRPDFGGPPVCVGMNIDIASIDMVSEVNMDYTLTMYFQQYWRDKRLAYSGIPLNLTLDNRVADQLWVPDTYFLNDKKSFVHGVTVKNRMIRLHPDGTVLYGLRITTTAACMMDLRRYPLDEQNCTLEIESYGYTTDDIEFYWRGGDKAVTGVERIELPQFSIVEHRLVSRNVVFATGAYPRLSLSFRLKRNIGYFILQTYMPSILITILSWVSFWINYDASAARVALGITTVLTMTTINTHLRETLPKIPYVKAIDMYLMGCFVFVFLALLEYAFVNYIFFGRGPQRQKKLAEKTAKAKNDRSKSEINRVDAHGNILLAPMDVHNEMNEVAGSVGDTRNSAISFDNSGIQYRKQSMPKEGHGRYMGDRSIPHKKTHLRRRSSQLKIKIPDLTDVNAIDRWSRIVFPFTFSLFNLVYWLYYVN
Sequence of recombinant rat α2β3γ2 receptors (P18508 39-466): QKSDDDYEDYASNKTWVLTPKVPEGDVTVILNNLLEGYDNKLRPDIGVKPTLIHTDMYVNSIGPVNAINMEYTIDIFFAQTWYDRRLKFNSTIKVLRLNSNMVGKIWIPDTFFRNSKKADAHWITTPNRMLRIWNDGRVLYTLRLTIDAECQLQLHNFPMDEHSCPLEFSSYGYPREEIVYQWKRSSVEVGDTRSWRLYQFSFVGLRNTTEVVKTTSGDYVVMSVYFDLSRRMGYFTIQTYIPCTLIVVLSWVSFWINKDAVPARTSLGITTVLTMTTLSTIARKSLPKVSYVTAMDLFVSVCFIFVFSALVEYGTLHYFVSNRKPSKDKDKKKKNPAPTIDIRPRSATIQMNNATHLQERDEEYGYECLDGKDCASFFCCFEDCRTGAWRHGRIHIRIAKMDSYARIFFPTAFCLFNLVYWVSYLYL

[9] = molecular target: recombinant rat α6β3γ2 receptors (Rattus norvegicus, UniProt P18508+P30191); assay: as above; assay type: cell-based; settings: for efficacy (% GABA EC3): ns = not significant
[10] = molecular target: recombinant rat α5β3γ2F77I receptors (Rattus norvegicus, UniProt P18508+P19969, F115I); assay: as above; assay type: cell-based; settings: for efficacy (% GABA EC3): ns = not significant
Sequence of recombinant rat α5β3γ2F77I receptors (P19969 32-464 limits assumed): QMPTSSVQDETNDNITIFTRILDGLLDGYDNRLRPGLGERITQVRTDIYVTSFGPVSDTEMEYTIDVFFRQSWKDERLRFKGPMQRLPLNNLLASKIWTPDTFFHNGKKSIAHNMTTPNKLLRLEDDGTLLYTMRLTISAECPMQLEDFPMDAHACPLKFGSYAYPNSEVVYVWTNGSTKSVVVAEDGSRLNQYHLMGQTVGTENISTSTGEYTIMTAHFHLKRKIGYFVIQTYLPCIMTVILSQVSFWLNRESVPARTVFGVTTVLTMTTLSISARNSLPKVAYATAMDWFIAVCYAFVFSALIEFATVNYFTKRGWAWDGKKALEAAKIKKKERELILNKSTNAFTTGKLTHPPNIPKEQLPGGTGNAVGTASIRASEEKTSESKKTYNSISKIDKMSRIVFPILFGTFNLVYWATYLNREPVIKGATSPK
Sequence of recombinant rat α5β3γ2F77I receptors (P63079 26-473 partner): as the sequence (P63079 26-473 partner) above
Sequence of recombinant rat α5β3γ2F77I receptors (P18508 39-466 F115I): as the sequence (P18508 39-466) above, with F77I counted along it

[11] = molecular target: recombinant rat α2β3γ2F77I receptors (Rattus norvegicus, UniProt P18508+P23576, F115I); assay: as above; assay type: cell-based; settings: for efficacy (% GABA EC3): ns = not significant
Sequence of recombinant rat α2β3γ2F77I receptors (P23576 29-451): as the sequence (P23576 29-451) above
Sequence of recombinant rat α2β3γ2F77I receptors (P63079 26-473 partner): as the sequence (P63079 26-473 partner) above
Sequence of recombinant rat α2β3γ2F77I receptors (P18508 39-466 F115I): as the sequence (P18508 39-466) above, with F77I counted along it

[12] = molecular target: recombinant rat α4β3γ2F77I receptors (Rattus norvegicus, UniProt P18508+P28471, F115I); assay: as above; assay type: cell-based; settings: 10 μM, ns = not significant
[13] = read-out: efficacy (% GABA EC3)
[14] = 10 nM, α2β3γ2, ns = not significant
[15] = 100 nM, α2β3γ2, ns = not significant
[16] = 1 μM, α2β3γ2, ns = not significant
[17] = 10 μM, α2β3γ2, ns = not significant

SMILES: COCc1c(C(=O)OC(C)C)ncc2[nH]c3ccc(OCc4ccccc4)cc3c12 [Abecarnil, Isopropyl-6-benzyloxy-4-methoxymethyl-β-carboline-3-carboxylate]
- EC50 [1]: > 9000 nM
- activity at 0.01 µM [1, 13]: 192 ± 31%
- activity at 0.1 µM [1, 13]: 330 ± 58%
- activity at 1 µM [1, 13]: 407 ± 83%
- activity at 10 µM [1, 13]: 640 ± 157%
- activity in the mutated receptors [2]: inactive
- EC50 [3]: > 2000 nM
- efficacy (% GABA EC3) ([3]; 10 nM): ns
- activity at 0.1 µM [3, 13]: 216 ± 44%
- activity at 1 µM [3, 13]: 320 ± 71%
- activity at 10 µM [3, 13]: 480 ± 100%
- efficacy (% GABA EC3) ([4]; 10 nM): ns
- efficacy (% GABA EC3) ([4]; 100 nM): ns
- activity at 1 µM [4, 13]: 169 ± 23%
- activity at 10 µM [4, 13]: 232 ± 38%
- efficacy (% GABA EC3) ([5]; 10 nM, α3β3γ2F77I): ns
- efficacy (% GABA EC3) ([5]; 100 nM, α3β3γ2F77I): ns
- activity at 1 µM [5, 13]: 192 ± 4%
- activity at 10 µM [5, 13]: 384 ± 24%
- efficacy (% GABA EC3) ([6]; 1 μM, α4β3γ2): ns
- activity at 10 µM [6, 13]: 279 ± 81%
- efficacy (% GABA EC3) ([7]; 10 nM, α1β3γ2F77I): ns
- efficacy (% GABA EC3) ([7]; 100 nM, α1β3γ2F77I): ns
- activity at 1 µM [7, 13]: 179 ± 25%
- activity at 10 µM [7, 13]: 279 ± 42%
- EC50 [8]: > 1000 nM
- efficacy (% GABA EC3) [8, 14]: ns
- efficacy (% GABA EC3) [8, 15]: ns
- activity at 1 µM ([8]; read-out: efficacy (% GABA EC3), 1 μM, α2β3γ2, ns = not significant): 261 ± 45%
- activity at 10 µM ([8]; read-out: efficacy (% GABA EC3), 10 μM, α2β3γ2, ns = not significant): 353 ± 62%
- efficacy (% GABA EC3) ([9]; 1 μM, α6β3γ2): ns
- activity at 10 µM [9, 13]: 218 ± 13%
- efficacy (% GABA EC3) ([10]; 10 nM, α5β3γ2F77I): ns
- efficacy (% GABA EC3) ([10]; 100 nM, α5β3γ2F77I): ns
- activity at 1 µM [10, 13]: 177 ± 11%
- activity at 10 µM [10, 13]: 283 ± 7%
- efficacy (% GABA EC3) ([11]; 10 nM, α2β3γ2F77I): ns
- efficacy (% GABA EC3) ([11]; 100 nM, α2β3γ2F77I): ns
- activity at 1 µM [11, 13]: 206 ± 16%
- activity at 10 µM [11, 13]: 420 ± 29%

SMILES: CN1C(=O)CN=C(c2ccccc2)c2cc(Cl)ccc21 [Diazepam, 7-chloro-1,3-dihydro-1-methyl-5-phenyl-2H-1,4-benzodiazepin-2-one]
- efficacy (% GABA EC3) ([1]; 100 nM): 239 ± 23 % GABA EC3
- efficacy (% GABA EC3) ([1]; 1 μM): 314 ± 29 % GABA EC3
- efficacy (% GABA EC3) ([1]; 10 μM): 324 ± 22 % GABA EC3
- efficacy (% GABA EC3) ([3]; 100 nM): 437 ± 32 % GABA EC3
- efficacy (% GABA EC3) ([3]; 1 μM): 752 ± 48 % GABA EC3
- efficacy (% GABA EC3) ([3]; 10 μM): 738 ± 36 % GABA EC3
- efficacy (% GABA EC3) ([4]; 100 nM): 274 ± 16 % GABA EC3
- efficacy (% GABA EC3) ([4]; 1 μM): 342 ± 21 % GABA EC3
- efficacy (% GABA EC3) ([4]; 10 μM): 321 ± 14 % GABA EC3
- efficacy (% GABA EC3) ([5]; 100 nM, α3β3γ2F77I): 166 ± 17 % GABA EC3
- efficacy (% GABA EC3) ([5]; 1 μM, α3β3γ2F77I): 263 ± 39 % GABA EC3
- efficacy (% GABA EC3) ([5]; 10 μM, α3β3γ2F77I): 272 ± 36 % GABA EC3
- efficacy for enhancing GABA EC3 in receptors containing the γ2F77I mutation ([5]; α3β3γ2F77I): 272 ± 36%
- efficacy (% GABA EC3) ([6]; 1 μM, α4β3γ2): ns
- efficacy (% GABA EC3) ([6]; 10 μM, α4β3γ2): ns
- maximal effect on GABA-induced chloride flux (GABA EC3), % of control current ([6]; α4β3γ2, control current = 100%): did not stimulate
- efficacy (% GABA EC3) ([7]; 100 nM, α1β3γ2F77I): 162 ± 17 % GABA EC3
- efficacy (% GABA EC3) ([7]; 1 μM, α1β3γ2F77I): 220 ± 21 % GABA EC3
- efficacy (% GABA EC3) ([7]; 10 μM, α1β3γ2F77I): 229 ± 26 % GABA EC3
- efficacy for enhancing GABA EC3 in receptors containing the γ2F77I mutation ([7]; α1β3γ2F77I): 229 ± 26%
- efficacy (% GABA EC3) [8, 15]: 426 ± 22 % GABA EC3
- efficacy (% GABA EC3) [8, 16]: 536 ± 26 % GABA EC3
- efficacy (% GABA EC3) [8, 17]: 532 ± 20 % GABA EC3
- efficacy (% GABA EC3) ([9]; 1 μM, α6β3γ2): ns
- efficacy (% GABA EC3) ([9]; 10 μM, α6β3γ2): ns
- maximal effect on GABA-induced chloride flux (GABA EC3), % of control current ([9]; α6β3γ2, control current = 100%): did not stimulate
- efficacy (% GABA EC3) ([10]; 100 nM, α5β3γ2F77I): 135 ± 7 % GABA EC3
- efficacy (% GABA EC3) ([10]; 1 μM, α5β3γ2F77I): 170 ± 4 % GABA EC3
- efficacy (% GABA EC3) ([10]; 10 μM, α5β3γ2F77I): 154 ± 2 % GABA EC3
- efficacy for enhancing GABA EC3 in receptors containing the γ2F77I mutation ([10]; α5β3γ2F77I): 154 ± 2%
- efficacy (% GABA EC3) ([11]; 100 nM, α2β3γ2F77I): 181 ± 1 % GABA EC3
- efficacy (% GABA EC3) ([11]; 1 μM, α2β3γ2F77I): 265 ± 4 % GABA EC3
- efficacy (% GABA EC3) ([11]; 10 μM, α2β3γ2F77I): 278 ± 6 % GABA EC3
- efficacy for enhancing GABA EC3 in receptors containing the γ2F77I mutation ([11]; α2β3γ2F77I): 278 ± 6%

SMILES: CCc1c(C(=O)OC)ncc2[nH]c3cc(OC)c(OC)cc3c12 [DMCM, methyl-6,7-dimethoxy-4-ethyl-β-carboline-3-carboxylate]
- efficacy (% GABA EC3) ([1]; 10 nM): 87 ± 8 % GABA EC3
- efficacy (% GABA EC3) ([1]; 100 nM): 79 ± 11 % GABA EC3
- efficacy (% GABA EC3) ([1]; 1 μM): ns
- efficacy (% GABA EC3) ([1]; 10 μM): 232 ± 54 % GABA EC3
- efficacy (% GABA EC3) ([3]; 10 nM): 78 ± 1 % GABA EC3
- efficacy (% GABA EC3) ([3]; 100 nM): 69 ± 1 % GABA EC3
- efficacy (% GABA EC3) ([3]; 1 μM): 75 ± 3 % GABA EC3
- efficacy (% GABA EC3) ([3]; 10 μM): 185 ± 15 % GABA EC3
- efficacy (% GABA EC3) ([4]; 10 nM): 53 ± 4 % GABA EC3
- efficacy (% GABA EC3) ([4]; 100 nM): 52 ± 5 % GABA EC3
- efficacy (% GABA EC3) ([4]; 1 μM): 56 ± 6 % GABA EC3
- efficacy (% GABA EC3) ([4]; 10 μM): 145 ± 14 % GABA EC3
- efficacy (% GABA EC3) ([5]; 10 nM, α3β3γ2F77I): ns
- efficacy (% GABA EC3) ([5]; 100 nM, α3β3γ2F77I): ns
- efficacy (% GABA EC3) ([5]; 1 μM, α3β3γ2F77I): 126 ± 5 % GABA EC3
- efficacy (% GABA EC3) ([5]; 10 μM, α3β3γ2F77I): 281 ± 26 % GABA EC3
- efficacy (% GABA EC3) ([6]; 10 nM, α4β3γ2): ns
- efficacy (% GABA EC3) ([6]; 100 nM, α4β3γ2): 77 ± 1 % GABA EC3
- efficacy (% GABA EC3) ([6]; 1 μM, α4β3γ2): 88 ± 2 % GABA EC3
- efficacy (% GABA EC3) ([6]; 10 μM, α4β3γ2): 155 ± 18 % GABA EC3
- efficacy (% GABA EC3) ([7]; 10 nM, α1β3γ2F77I): ns
- efficacy (% GABA EC3) ([7]; 100 nM, α1β3γ2F77I): ns
- efficacy (% GABA EC3) ([7]; 1 μM, α1β3γ2F77I): 123 ± 3 % GABA EC3
- efficacy (% GABA EC3) ([7]; 10 μM, α1β3γ2F77I): 269 ± 3 % GABA EC3
- efficacy (% GABA EC3) [8, 14]: 71 ± 7 % GABA EC3
- efficacy (% GABA EC3) [8, 15]: 54 ± 5 % GABA EC3
- efficacy (% GABA EC3) [8, 16]: 54 ± 3 % GABA EC3
- efficacy (% GABA EC3) [8, 17]: ns
- efficacy (% GABA EC3) [12]: 155 ± 9 % GABA EC3
- efficacy (% GABA EC3) ([9]; 10 nM, α6β3γ2): ns
- efficacy (% GABA EC3) ([9]; 100 nM, α6β3γ2): 118 ± 9 % GABA EC3
- efficacy (% GABA EC3) ([9]; 1 μM, α6β3γ2): 189 ± 21 % GABA EC3
- efficacy (% GABA EC3) ([9]; 10 μM, α6β3γ2): 353 ± 22 % GABA EC3
- efficacy (% GABA EC3) ([10]; 10 nM, α5β3γ2F77I): ns
- efficacy (% GABA EC3) ([10]; 100 nM, α5β3γ2F77I): ns
- efficacy (% GABA EC3) ([10]; 1 μM, α5β3γ2F77I): ns
- efficacy (% GABA EC3) ([10]; 10 μM, α5β3γ2F77I): 211 ± 40 % GABA EC3
- efficacy (% GABA EC3) ([11]; 10 nM, α2β3γ2F77I): 103 ± 1 % GABA EC3
- efficacy (% GABA EC3) ([11]; 100 nM, α2β3γ2F77I): 111 ± 2 % GABA EC3
- efficacy (% GABA EC3) ([11]; 1 μM, α2β3γ2F77I): 123 ± 1 % GABA EC3
- efficacy (% GABA EC3) ([11]; 10 μM, α2β3γ2F77I): 283 ± 17 % GABA EC3
